{"source": "patent US5294617A", "about": "“Angiotensin II receptor blocking 2,3,6 substituted quinazolinones” (American Cyanamid Company, priority 1993, dated 1994)", "system": "ANGIOTENSIN II (AII) VASOPRESSOR RESPONSE", "test": "AII Challenge: angiotensin II vasopressor response in conscious spontaneously hypertensive rats", "assay_type": "in vivo, Conscious Male Okamoto-Aoki SHR (rat)", "settings": "individual rat, SHR", "description": "By administering a compound of this invention to a rat, and then challenging with angiotensin II, a blockage of the vasopressor response is realized.\nConscious Male Okamoto-Aoki SHR, 16-20 weeks old, weighing approximately 330 g are purchased from Charles River Labs (Wilmington, Mass.). Conscious rats are restrained in a supine position with elastic tape. The area at the base of the tail is locally anesthetized by subcutaneous infiltration with 2% procaine. The ventral caudal artery and vein are isolated, and a cannula made of polyethylene (PE) 10-20 tubing (fused together by heat) is passed into the lower abdominal aorta and vena cava, respectively. The cannula is secured, heparinized (1,000 I.U./ml), sealed and the wound is closed. The animals are placed in plastic restraining cages in an upright position. The cannula is attached to a Statham P23Db pressure transducer, and pulsatile blood pressure is recorded to 10-15 minutes with a Gould Brush recorder. (Chan et al., (Drug Development Res., 18:75-94, 1989).\nAngiotensin II (human sequence, Sigma Chem. Co., St. Louis, Mo.) of 0.05 and 0.1 ug/kg i.v. is injected into all rats (predosing response). Then a test compound, vehicle or a known angiotensin II antagonist is administered i.v., i.p. or orally to each set of rats. The two doses of angiotensin II are given to each rat again at 30, 60, 90, 120, 180, 240 and 300 minutes post dosing the compound or vehicle. The vasopressor response of angiotensin II is measured for the increase in systolic blood pressure in mmHg. The percentage of antagonism or blockade of the vasopressor response of angiotensin II by a compound is calculated using the vasopressor response (increase in systolic blood pressure) of angiotensin II of each rat predosing the compound as 100%. A compound is considered active if at 30 mg/kg i.v. it antagonized at least 50% of the response.", "key": {"[1]": {"settings": "2 mg/kg i.v., AII 0.1 mcg/kg IV, 90 min post dose, 2 mg/kg"}, "[2]": {"settings": "2 mg/kg i.v., AII 0.1 mcg/kg IV, 120 min post dose, 2 mg/kg"}, "[3]": {"settings": "2 mg/kg i.v., AII 0.1 mcg/kg IV, 180 min post dose, 2 mg/kg"}, "[4]": {"settings": "10 mg/kg i.v., AII 0.05 mcg/kg IV, 30 min post dose, 10 mg/kg"}, "[5]": {"settings": "10 mg/kg i.v., AII 0.05 mcg/kg IV, 60 min post dose, 10 mg/kg"}, "[6]": {"settings": "10 mg/kg i.v., AII 0.05 mcg/kg IV, 120 min post dose, 10 mg/kg"}, "[7]": {"settings": "10 mg/kg i.v., AII 0.05 mcg/kg IV, 180 min post dose, 10 mg/kg"}, "[8]": {"settings": "10 mg/kg i.v., AII 0.05 mcg/kg IV, 240 min post dose, 10 mg/kg"}, "[9]": {"settings": "10 mg/kg i.v., AII 0.05 mcg/kg IV, 300 min post dose, 10 mg/kg"}, "[10]": {"settings": "10 mg/kg i.v., AII 0.1 mcg/kg IV, 30 min post dose"}, "[11]": {"settings": "10 mg/kg i.v., AII 0.1 mcg/kg IV, 60 min post dose, 10 mg/kg"}, "[12]": {"settings": "10 mg/kg i.v., AII 0.1 mcg/kg IV, 90 min post dose, 10 mg/kg"}, "[13]": {"settings": "10 mg/kg i.v., AII 0.1 mcg/kg IV, 120 min post dose, 10 mg/kg"}, "[14]": {"settings": "10 mg/kg i.v., AII 0.1 mcg/kg IV, 180 min post dose, 10 mg/kg"}, "[15]": {"settings": "10 mg/kg i.v., AII 0.1 mcg/kg IV, 240 min post dose, 10 mg/kg"}, "[16]": {"settings": "10 mg/kg i.v., AII 0.1 mcg/kg IV, 300 min post dose, 10 mg/kg"}}, "note": "Where “and” joins values, the source holds several entries; their conditions need not be identical. Equal values may be shown once.", "data": [{"smiles": "CCCCc1nc2ccc([C@@H]3C[C@H](CO)ON3C)cc2c(=O)n1Cc1ccc(-c2ccccc2-c2nn[nH]n2)cc1", "note": "(relative stereo) [Example 15, CIS-2-butyl-6-5-(hydroxymethyl)-2-methyl-3-isoxazolidinyl]-3-[[2'-(1H-tetrazol-5[1,1'-biphenyl]-4-yl]methyl]-4(3H)-quinazolinone]", "values": [{"measurement": "Response After AII", "setting": "[1]", "value": "245 mmHg and 240 mmHg"}, {"measurement": "Response Change", "setting": "[1]", "value": "30 mmHg and 20 mmHg"}, {"measurement": "Response After AII", "setting": "[2]", "value": "227 mmHg and 235 mmHg"}, {"measurement": "Response Change", "setting": "[2]", "value": "17 mmHg and 20 mmHg"}, {"measurement": "Response After AII", "setting": "[3]", "value": "220 mmHg and 255 mmHg"}, {"measurement": "Response Change", "setting": "[3]", "value": "10 mmHg and 35 mmHg"}, {"measurement": "Control Before AII", "setting": "2 mg/kg i.v., before AII 0.05 mcg/kg IV, 30 min post dose, 2 mg/kg", "value": "215 mmHg and 225 mmHg"}, {"measurement": "Control Before AII", "setting": "2 mg/kg i.v., before AII 0.05 mcg/kg IV, 60 min post dose", "value": 220, "unit": "mmHg"}, {"measurement": "Control Before AII", "setting": "2 mg/kg i.v., before AII 0.05 mcg/kg IV, 90 min post dose, 2 mg/kg", "value": "210 mmHg and 225 mmHg"}, {"measurement": "Control Before AII", "setting": "2 mg/kg i.v., before AII 0.05 mcg/kg IV, 120 min post dose, 2 mg/kg", "value": "205 mmHg and 215 mmHg"}, {"measurement": "Control Before AII", "setting": "2 mg/kg i.v., before AII 0.05 mcg/kg IV, 180 min post dose, 2 mg/kg", "value": "203 mmHg and 215 mmHg"}, {"measurement": "Control Before AII", "setting": "2 mg/kg i.v., before AII 0.1 mcg/kg IV, 30 min post dose, 2 mg/kg", "value": "220 mmHg and 215 mmHg"}, {"measurement": "Control Before AII", "setting": "2 mg/kg i.v., before AII 0.1 mcg/kg IV, 60 min post dose, 2 mg/kg", "value": "220 mmHg and 217 mmHg"}, {"measurement": "Control Before AII", "setting": "2 mg/kg i.v., before AII 0.1 mcg/kg IV, 90 min post dose, 2 mg/kg", "value": "215 mmHg and 220 mmHg"}, {"measurement": "Control Before AII", "setting": "2 mg/kg i.v., before AII 0.1 mcg/kg IV, 120 min post dose, 2 mg/kg", "value": "210 mmHg and 215 mmHg"}, {"measurement": "Control Before AII", "setting": "2 mg/kg i.v., before AII 0.1 mcg/kg IV, 180 min post dose, 2 mg/kg", "value": "210 mmHg and 220 mmHg"}, {"measurement": "Response After AII", "setting": "[4]", "value": "180 mmHg and 190 mmHg"}, {"measurement": "Response Change", "setting": "[4]", "value": "5 mmHg and 15 mmHg"}, {"measurement": "Response After AII", "setting": "10 mg/kg i.v., AII 0.05 mcg/kg IV, 60 min post dose", "value": 190, "unit": "mmHg"}, {"measurement": "Response After AII", "setting": "[5]", "value": 165, "unit": "mmHg"}, {"measurement": "Response Change", "setting": "[5]", "value": "0 mmHg and 1 mmHg"}, {"measurement": "Response Change", "setting": "10 mg/kg i.v., AII 0.05 mcg/kg IV, 90 min post dose", "value": 5, "unit": "mmHg"}, {"measurement": "Response After AII", "setting": "10 mg/kg i.v., AII 0.05 mcg/kg IV, 90 min post dose, 10 mg/kg", "value": "180 mmHg and 170 mmHg"}, {"measurement": "Response After AII", "setting": "[6]", "value": "195 mmHg and 175 mmHg"}, {"measurement": "Response Change", "setting": "[6]", "value": "15 mmHg and 10 mmHg"}, {"measurement": "Response After AII", "setting": "[7]", "value": "195 mmHg and 165 mmHg"}, {"measurement": "Response Change", "setting": "[7]", "value": "30 mmHg and 10 mmHg"}, {"measurement": "Response After AII", "setting": "10 mg/kg i.v., AII 0.05 mcg/kg IV, 240 min post dose", "value": 160, "unit": "mmHg"}, {"measurement": "Response After AII", "setting": "[8]", "value": 195, "unit": "mmHg"}, {"measurement": "Response Change", "setting": "[8]", "value": "25 mmHg and 5 mmHg"}, {"measurement": "Response After AII", "setting": "10 mg/kg i.v., AII 0.05 mcg/kg IV, 300 min post dose", "value": 170, "unit": "mmHg"}, {"measurement": "Response After AII", "setting": "[9]", "value": 185, "unit": "mmHg"}, {"measurement": "Response Change", "setting": "[9]", "value": "17 mmHg and 10 mmHg"}, {"measurement": "Response After AII", "setting": "[10]", "value": 170, "unit": "mmHg"}, {"measurement": "Response Change", "setting": "[10]", "value": 0, "unit": "mmHg"}, {"measurement": "Response After AII", "setting": "10 mg/kg i.v., AII 0.1 mcg/kg IV, 30 min post dose, 10 mg/kg", "value": 185, "unit": "mmHg"}, {"measurement": "Response After AII", "setting": "[11]", "value": "193 mmHg and 170 mmHg"}, {"measurement": "Response Change", "setting": "[11]", "value": "8 mmHg and 10 mmHg"}, {"measurement": "Response After AII", "setting": "[12]", "value": "195 mmHg and 175 mmHg"}, {"measurement": "Response Change", "setting": "[12]", "value": "10 mmHg and 15 mmHg"}, {"measurement": "Response After AII", "setting": "10 mg/kg i.v., AII 0.1 mcg/kg IV, 120 min post dose", "value": 190, "unit": "mmHg"}, {"measurement": "Response After AII", "setting": "[13]", "value": 175, "unit": "mmHg"}, {"measurement": "Response Change", "setting": "[13]", "value": "15 mmHg and 10 mmHg"}, {"measurement": "Response After AII", "setting": "[14]", "value": "205 mmHg and 165 mmHg"}, {"measurement": "Response Change", "setting": "[14]", "value": "35 mmHg and 8 mmHg"}, {"measurement": "Response After AII", "setting": "[15]", "value": "205 mmHg and 165 mmHg"}, {"measurement": "Response Change", "setting": "[15]", "value": "35 mmHg and 8 mmHg"}, {"measurement": "Response After AII", "setting": "[16]", "value": "190 mmHg and 200 mmHg"}, {"measurement": "Response Change", "setting": "[16]", "value": "25 mmHg and 40 mmHg"}, {"measurement": "Control Before AII", "setting": "10 mg/kg i.v., before AII 0.05 mcg/kg IV, 30 min post dose", "value": 175, "unit": "mmHg"}, {"measurement": "Control Before AII", "setting": "10 mg/kg i.v., before AII 0.05 mcg/kg IV, 60 min post dose, 10 mg/kg", "value": "190 mmHg and 164 mmHg"}, {"measurement": "Control Before AII", "setting": "10 mg/kg i.v., before AII 0.05 mcg/kg IV, 90 min post dose, 10 mg/kg", "value": "175 mmHg and 165 mmHg"}, {"measurement": "Control Before AII", "setting": "10 mg/kg i.v., before AII 0.05 mcg/kg IV, 120 min post dose, 10 mg/kg", "value": "180 mmHg and 165 mmHg"}, {"measurement": "Control Before AII", "setting": "10 mg/kg i.v., before AII 0.05 mcg/kg IV, 180 min post dose, 10 mg/kg", "value": "165 mmHg and 155 mmHg"}, {"measurement": "Control Before AII", "setting": "10 mg/kg i.v., before AII 0.05 mcg/kg IV, 240 min post dose, 10 mg/kg", "value": "170 mmHg and 155 mmHg"}, {"measurement": "Control Before AII", "setting": "10 mg/kg i.v., before AII 0.05 mcg/kg IV, 300 min post dose, 10 mg/kg", "value": "168 mmHg and 160 mmHg"}, {"measurement": "Control Before AII", "setting": "10 mg/kg i.v., before AII 0.1 mcg/kg IV, 30 min post dose, 10 mg/kg", "value": "185 mmHg and 170 mmHg"}, {"measurement": "Control Before AII", "setting": "10 mg/kg i.v., before AII 0.1 mcg/kg IV, 60 min post dose, 10 mg/kg", "value": "185 mmHg and 160 mmHg"}, {"measurement": "Control Before AII", "setting": "10 mg/kg i.v., before AII 0.1 mcg/kg IV, 90 min post dose, 10 mg/kg", "value": "185 mmHg and 160 mmHg"}, {"measurement": "Control Before AII", "setting": "10 mg/kg i.v., before AII 0.1 mcg/kg IV, 120 min post dose, 10 mg/kg", "value": "175 mmHg and 165 mmHg"}, {"measurement": "Control Before AII", "setting": "10 mg/kg i.v., before AII 0.1 mcg/kg IV, 180 min post dose, 10 mg/kg", "value": "170 mmHg and 157 mmHg"}, {"measurement": "Control Before AII", "setting": "10 mg/kg i.v., before AII 0.1 mcg/kg IV, 240 min post dose, 10 mg/kg", "value": "170 mmHg and 157 mmHg"}, {"measurement": "Control Before AII", "setting": "10 mg/kg i.v., before AII 0.1 mcg/kg IV, 300 min post dose, 10 mg/kg", "value": "165 mmHg and 160 mmHg"}]}]}
